Test results published in US8691865B2 (AbbVie Inc., priority 2008, dated 2014).

target: human Cav2.2 (Homo sapiens, UniProt Q00975); assay: Assessment of calcium channel activity using FLIPR (Ca2+ influx in IMR32 cells); assay type: cell-based; details: not given
Outline: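 IC50 values derive from nonlinear sigmoidal fitting of percent inhibition, relative to inhibitor-free activity, of Ca2+ influx read by FLIPR. Cells were IMR32 human neuroblastoma, plated at 1−1.2×10^5 per well and grown 48 h at 37 °C.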

human Cav2.2, sequence (Q00975 whole entry): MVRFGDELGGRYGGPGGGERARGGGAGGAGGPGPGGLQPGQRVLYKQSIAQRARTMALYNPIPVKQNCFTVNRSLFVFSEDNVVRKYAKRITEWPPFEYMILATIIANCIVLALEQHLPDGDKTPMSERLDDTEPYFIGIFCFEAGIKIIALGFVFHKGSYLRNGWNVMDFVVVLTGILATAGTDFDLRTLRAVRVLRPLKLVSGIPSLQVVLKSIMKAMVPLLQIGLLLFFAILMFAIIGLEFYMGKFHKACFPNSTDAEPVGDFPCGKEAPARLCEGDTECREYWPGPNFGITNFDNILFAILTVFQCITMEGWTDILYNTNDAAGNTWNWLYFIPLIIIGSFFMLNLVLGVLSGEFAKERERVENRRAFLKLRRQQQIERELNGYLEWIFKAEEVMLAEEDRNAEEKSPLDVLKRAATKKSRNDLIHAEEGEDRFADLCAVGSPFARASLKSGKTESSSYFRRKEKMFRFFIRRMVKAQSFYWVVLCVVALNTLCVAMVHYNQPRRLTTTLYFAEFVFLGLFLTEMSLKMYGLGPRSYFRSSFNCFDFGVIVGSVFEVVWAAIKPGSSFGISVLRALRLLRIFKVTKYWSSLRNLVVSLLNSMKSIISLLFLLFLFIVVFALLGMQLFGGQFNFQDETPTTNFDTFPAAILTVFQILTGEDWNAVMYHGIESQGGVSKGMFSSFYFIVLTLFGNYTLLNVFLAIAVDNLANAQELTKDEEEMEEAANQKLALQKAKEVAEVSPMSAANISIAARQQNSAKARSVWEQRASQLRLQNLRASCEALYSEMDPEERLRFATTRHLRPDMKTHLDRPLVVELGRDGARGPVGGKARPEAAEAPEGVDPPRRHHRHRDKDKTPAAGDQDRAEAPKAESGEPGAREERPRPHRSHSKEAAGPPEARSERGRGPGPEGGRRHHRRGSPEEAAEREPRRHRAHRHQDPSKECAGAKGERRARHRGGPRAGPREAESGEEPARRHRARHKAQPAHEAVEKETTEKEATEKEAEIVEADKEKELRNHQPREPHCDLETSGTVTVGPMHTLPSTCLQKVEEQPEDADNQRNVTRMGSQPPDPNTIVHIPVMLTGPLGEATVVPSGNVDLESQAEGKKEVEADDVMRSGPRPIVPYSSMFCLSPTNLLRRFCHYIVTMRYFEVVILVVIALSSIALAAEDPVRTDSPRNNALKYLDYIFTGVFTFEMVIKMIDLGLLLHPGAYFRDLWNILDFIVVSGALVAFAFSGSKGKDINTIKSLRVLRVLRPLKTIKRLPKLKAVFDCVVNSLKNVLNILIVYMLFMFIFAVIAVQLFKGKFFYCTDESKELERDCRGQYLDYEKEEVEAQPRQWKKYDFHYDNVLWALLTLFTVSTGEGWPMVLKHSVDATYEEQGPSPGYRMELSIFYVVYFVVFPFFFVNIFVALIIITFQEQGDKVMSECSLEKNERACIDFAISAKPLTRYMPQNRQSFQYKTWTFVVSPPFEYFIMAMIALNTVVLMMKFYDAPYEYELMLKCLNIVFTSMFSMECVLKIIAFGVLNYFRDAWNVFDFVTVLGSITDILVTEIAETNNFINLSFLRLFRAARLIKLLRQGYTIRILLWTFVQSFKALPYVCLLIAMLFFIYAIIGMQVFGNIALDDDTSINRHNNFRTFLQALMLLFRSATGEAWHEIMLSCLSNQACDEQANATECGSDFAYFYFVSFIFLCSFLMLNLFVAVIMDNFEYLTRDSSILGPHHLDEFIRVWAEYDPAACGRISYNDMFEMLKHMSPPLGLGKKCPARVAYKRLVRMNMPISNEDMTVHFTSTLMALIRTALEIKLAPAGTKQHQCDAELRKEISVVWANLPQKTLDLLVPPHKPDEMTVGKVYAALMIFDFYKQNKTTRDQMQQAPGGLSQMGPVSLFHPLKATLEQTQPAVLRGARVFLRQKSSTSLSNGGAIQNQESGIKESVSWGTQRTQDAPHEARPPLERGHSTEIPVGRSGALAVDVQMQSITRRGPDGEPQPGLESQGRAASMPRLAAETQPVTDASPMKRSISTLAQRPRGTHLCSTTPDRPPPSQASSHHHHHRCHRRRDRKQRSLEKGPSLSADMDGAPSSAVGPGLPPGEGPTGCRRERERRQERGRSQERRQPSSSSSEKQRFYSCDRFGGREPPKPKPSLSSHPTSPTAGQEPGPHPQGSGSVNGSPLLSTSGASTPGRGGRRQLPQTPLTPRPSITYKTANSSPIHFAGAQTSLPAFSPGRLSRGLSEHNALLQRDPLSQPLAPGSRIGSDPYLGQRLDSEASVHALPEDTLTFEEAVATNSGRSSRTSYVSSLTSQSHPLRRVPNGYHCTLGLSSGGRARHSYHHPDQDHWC
human Cav2.2, sequence (P54289 25-956 partner limits assumed): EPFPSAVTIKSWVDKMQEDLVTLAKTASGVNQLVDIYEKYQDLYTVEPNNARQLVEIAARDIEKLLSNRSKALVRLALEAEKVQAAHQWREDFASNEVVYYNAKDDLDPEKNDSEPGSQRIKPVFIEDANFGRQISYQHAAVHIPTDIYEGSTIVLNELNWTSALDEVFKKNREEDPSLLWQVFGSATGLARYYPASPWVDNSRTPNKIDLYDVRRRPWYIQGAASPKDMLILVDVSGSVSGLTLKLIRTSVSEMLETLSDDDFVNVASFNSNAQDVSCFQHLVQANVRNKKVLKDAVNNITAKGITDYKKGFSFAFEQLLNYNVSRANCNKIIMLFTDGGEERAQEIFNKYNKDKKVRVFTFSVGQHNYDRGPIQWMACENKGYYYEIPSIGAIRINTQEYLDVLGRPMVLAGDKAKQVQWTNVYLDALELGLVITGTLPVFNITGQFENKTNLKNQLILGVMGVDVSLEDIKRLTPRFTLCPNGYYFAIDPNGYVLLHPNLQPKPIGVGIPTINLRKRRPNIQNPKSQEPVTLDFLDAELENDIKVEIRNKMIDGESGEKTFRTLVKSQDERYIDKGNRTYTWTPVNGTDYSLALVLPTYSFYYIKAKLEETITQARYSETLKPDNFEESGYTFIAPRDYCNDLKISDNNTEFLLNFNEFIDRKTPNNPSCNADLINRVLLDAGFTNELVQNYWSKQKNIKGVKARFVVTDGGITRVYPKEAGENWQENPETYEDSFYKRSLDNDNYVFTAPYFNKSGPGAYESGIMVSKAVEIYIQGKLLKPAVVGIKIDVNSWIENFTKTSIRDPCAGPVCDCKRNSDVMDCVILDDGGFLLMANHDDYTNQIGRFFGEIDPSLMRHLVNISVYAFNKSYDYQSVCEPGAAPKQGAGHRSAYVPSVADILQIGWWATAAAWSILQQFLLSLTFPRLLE
human Cav2.2, sequence (P54289 957-1103 partner limits assumed): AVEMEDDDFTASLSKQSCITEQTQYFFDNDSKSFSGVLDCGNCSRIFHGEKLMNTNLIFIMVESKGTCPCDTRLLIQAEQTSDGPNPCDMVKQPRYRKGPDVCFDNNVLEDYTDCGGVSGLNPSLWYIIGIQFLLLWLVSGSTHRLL
human Cav2.2, sequence (P54284 whole entry partner): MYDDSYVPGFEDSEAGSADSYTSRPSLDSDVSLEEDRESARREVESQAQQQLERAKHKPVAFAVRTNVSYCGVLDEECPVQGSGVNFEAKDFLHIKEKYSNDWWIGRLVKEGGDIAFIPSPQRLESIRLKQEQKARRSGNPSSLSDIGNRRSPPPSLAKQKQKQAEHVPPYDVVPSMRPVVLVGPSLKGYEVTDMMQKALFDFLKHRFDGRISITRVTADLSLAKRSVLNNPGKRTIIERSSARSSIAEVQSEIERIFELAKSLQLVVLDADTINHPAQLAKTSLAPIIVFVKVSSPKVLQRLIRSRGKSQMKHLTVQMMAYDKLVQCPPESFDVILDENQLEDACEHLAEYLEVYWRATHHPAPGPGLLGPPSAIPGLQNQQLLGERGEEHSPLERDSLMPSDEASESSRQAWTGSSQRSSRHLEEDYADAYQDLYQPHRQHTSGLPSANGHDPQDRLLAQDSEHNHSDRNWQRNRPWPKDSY

| Structure (SMILES) | IC50 [µM] |
| --- | --- |
| CC(C)C(C(=O)N[C@@H]1CC[C@H]2CN(Cc3ccccc3)C[C@H]21)C(C)C [Example 235, N-[(3aS,4R,6aR)-2-benzyloctahydrocyclopenta[c]pyrrol-4-yl]-2-isopropyl-3-methylbutanamide] | 11 |
| CN[C@@H](Cc1ccccc1)C(=O)N[C@H]1CC[C@@H]2CN(S(=O)(=O)c3ccc(C(F)(F)F)cc3Cl)C[C@@H]21 [Example 432] | 1.66 |
| C[C@H](C(=O)N[C@H]1CC[C@H]2CN(Cc3ccccc3)C[C@H]21)c1cccc(C(=O)c2ccccc2)c1 (relative stereo) [Example 12, (2S)-2-(3-benzoylphenyl)-N-[(3aS*,4S*,6aR*)-2-benzyloctahydrocyclopenta[c]pyrrol-4-yl]propanamide] | 1.22 |
| O=C(CC(c1ccccc1)c1ccccc1)N[C@H]1CC[C@H]2CN(Cc3cccc(C(F)(F)F)c3)C[C@H]21 (relative stereo) [Example 131, 3,3-diphenyl-N-{(3aS*,4S*,6aR*)-2-[3-(trifluoromethyl)benzyl]octahydrocyclopenta[c]pyrrol-4-yl}propanamide] | 0.66 |
| O=C(N[C@H]1CC[C@H]2CN(Cc3ccc(F)cc3)C[C@H]21)C(C1CCCCC1)C1CCCCC1 [Example 56, 2,2-dicyclohexyl-N-[(3aS,4S,6aR)-2-(4-fluorobenzyl)octahydrocyclopenta[c]pyrrol-4-yl]acetamide] | 0.74 |
| Cc1cccc(CN2C[C@@H]3CC[C@H](NC(=O)C(C4CCCCC4)C4CCCCC4)[C@@H]3C2)c1 [Example 61, 2,2-dicyclohexyl-N-[(3aS,4S,6aR)-2-(3-methylbenzyl)octahydrocyclopenta[c]pyrrol-4-yl]acetamide] | 0.86 |
| O=C(N[C@H]1CC[C@H]2CN(Cc3cccc(C(F)(F)F)c3)C[C@H]21)C(c1ccccc1)c1ccccc1 (relative stereo) [Example 135, 2,2-diphenyl-N-{(3aS*,4S*,6aR*)-2-[3-(trifluoromethyl)benzyl]octahydrocyclopenta[c]pyrrol-4-yl}acetamide] | 0.67 |
| CN[C@H](C(=O)N[C@H]1CC[C@@H]2CN(c3ccc(C(F)(F)F)cc3)C[C@@H]21)[C@H](C)O [Example 750, N^2-methyl-N-{(3aR,4S,6aS)-2-[4-(trifluoromethyl)phenyl]octahydrocyclopenta[c]pyrrol-4-yl}-L-allothreoninamide] | > 3 |
| CN[C@@H](CC(C)C)C(=O)N[C@H]1CC[C@@H]2CN(c3ccc(Cl)cc3)C[C@@H]21 [Example 639, N-[(3aR,4S,6aS)-2-(4-chlorophenyl)octahydrocyclopenta[c]pyrrol-4-yl]-N^2-methyl-L-leucinamide] | 7.77 |
| Fc1ccc2[nH]c(CN[C@H]3CC[C@@H]4CN(c5ccc(OC(F)(F)F)cc5)C[C@@H]43)cc2c1 [Example 716, (3aR,4S,6aS)-N-[(5-fluoro-1H-indol-2-yl)methyl]-2-[4-(trifluoromethoxy)phenyl]octahydrocyclopenta[c]pyrrol-4-amine] | 8.15 |
| CCC[C@H](NC(=O)OC(C)C)C(=O)N[C@H]1CC[C@@H]2CN(S(=O)(=O)c3ccc(C(F)(F)F)cc3)C[C@@H]21 [Example 279, isopropyl(S)-1-oxo-1-((3aR,4S,6aS)-2-(4-(trifluoromethyl)phenylsulfonyl)octahydrocyclopenta[c]pyrrol-4-ylamino)pentan-2-ylcarbamate] | > 16.4 |
| O=C(N[C@H]1CC[C@@H]2CN(c3cc(C(F)(F)F)ccn3)C[C@@H]21)[C@@H]1C[C@@H](F)CN1 [Example 637, (4R)-4-fluoro-N-{(3aR,4S,6aS)-2-[4-(trifluoromethyl)pyridin-2-yl]octahydrocyclopenta[c]pyrrol-4-yl}-L-prolinamide] | 20.5 |
| CCC[C@H](NC(=O)OC(C)C)C(=O)N[C@H]1CC[C@@H]2CN(c3ccc(C(F)(F)F)cn3)C[C@@H]21 [Example 263, isopropyl(S)-1-oxo-1-((3aR,4S,6aS)-2-(5-(trifluoromethyl)pyridin-2-yl)octahydrocyclopenta[c]pyrrol-4-ylamino)pentan-2-ylcarbamate] | > 30 |
| CN[C@@H](CC(C)C)C(=O)N[C@H]1CC[C@@H]2CN(c3ccccc3C(F)F)C[C@@H]21 [Example 771, N-{(3aR,4S,6aS)-2-[2-(difluoromethyl)phenyl]octahydrocyclopenta[c]pyrrol-4-yl}-N^2-methyl-L-leucinamide] | 2.9 |
| FC(F)(F)c1cccc(N2C[C@H]3CC[C@H](NCc4ccn[nH]4)[C@H]3C2)n1 [Example 663, (3aR,4S,6aS)-N-(1H-pyrazol-5-ylmethyl)-2-[6-(trifluoromethyl)pyridin-2-yl]octahydrocyclopenta[c]pyrrol-4-amine] | 1.89 |
| CC(C)N[C@@H](CC(C)(C)C)C(=O)N[C@H]1CC[C@@H]2CN(C(=O)[C@H](Cc3ccccc3)NC(C)C)C[C@@H]21 [Example 489, N^2-isopropyl-N^1-[(3aR,4S,6aS)-2-(N-isopropyl-L-phenylalanyl)octahydrocyclopenta[c]pyrrol-4-yl]-4-methyl-L-leucinamide] | 15.7 |
| CN[C@@H](CC(C)C)C(=O)N[C@H]1CC[C@@H]2CN(c3nnc(C(F)(F)F)s3)C[C@@H]21 [Example 734, N^2-methyl-N-{(3aR,4S,6aS)-2-[5-(trifluoromethyl)-1,3,4-thiadiazol-2-yl]octahydrocyclopenta[c]pyrrol-4-yl}-L-leucinamide] | 26.4 |
| O=C(N[C@H]1CC[C@H]2CN(Cc3cccc(C(F)(F)F)c3)C[C@H]21)C(C1CCCCC1)C1CCCCC1 (relative stereo) [Example 124, 2,2-dicyclohexyl-N-{(3aS*,4S*,6aR*)-2-[3-(trifluoromethyl)benzyl]octahydrocyclopenta[c]pyrrol-4-yl}acetamide] | 1.07 |
| CN[C@@H](CC(C)(C)C)C(=O)N[C@H]1CC[C@@H]2CN(S(=O)(=O)c3ccc(C(F)(F)F)cc3)C[C@@H]21 [Example 415, N^2,4-dimethyl-N^1-((3aR,4S,6aS)-2-{[4-(trifluoromethyl)phenyl]sulfonyl}octahydrocyclopenta[c]pyrrol-4-yl)-L-leucinamide] | 1.31 |
| CN[C@H](C(=O)N[C@H]1CC[C@@H]2CN(c3ccc(C(F)(F)F)cc3)C[C@@H]21)C(C)C [Example 747, N^2-methyl-N-{(3aR,4S,6aS)-2-[4-(trifluoromethyl)phenyl]octahydrocyclopenta[c]pyrrol-4-yl}-L-valinamide] | > 9.5 |

same assay, conditions: read-out: IC50 (μM) or percent inhibition (* indicates 3 minute incubation, otherwise 60 minute); IC50; 60 minute pre-incubation with compound; IMR32 cells, 80 mM KCl depolarization

| Structure (SMILES) | IC50 [µM] |
| --- | --- |
| O=C(N[C@@H]1CC[C@H]2CN(Cc3cccc(C(F)(F)F)c3)C[C@H]21)C(c1ccc(F)cc1)c1ccc(F)cc1 (relative stereo) [Example 146, 2,2-bis(4-fluorophenyl)-N-{(3aS*,4R*,6aR*)-2-[3-(trifluoromethyl)benzyl]octahydrocyclopenta[c]pyrrol-4-yl}acetamide] | 0.79 |
| CC(C)C(C(=O)N[C@H]1CC[C@@H]2CN(CCC(c3ccccc3)c3ccccc3)C[C@@H]21)c1ccccc1 (stereo partly drawn) [Example 116, N-[(3aR,4S,6aS)-2-(3,3-diphenylpropyl)octahydrocyclopenta[c]pyrrol-4-yl]-3-methyl-2-phenylbutanamide] | 1.17 |
| CC(C)C[C@H](N)C(=O)N[C@@H]1CC[C@H]2CN(S(=O)(=O)c3cccc(C(F)(F)F)c3)C[C@H]21 [Example 184, N^1-((3aS,4R,6aR)-2-{[3-(trifluoromethyl)phenyl]sulfonyl}octahydrocyclopenta[c]pyrrol-4-yl)-L-leucinamide] | 1.45 |
| O=C(CC(c1ccc(F)cc1)c1ccc(F)cc1)N[C@H]1CC[C@H]2CN(Cc3cccc(C(F)(F)F)c3)C[C@H]21 (relative stereo) [Example 133, 3,3-bis(4-fluorophenyl)-N-{(3aS*,4S*,6aR*)-2-[3-(trifluoromethyl)benzyl]octahydrocyclopenta[c]pyrrol-4-yl}propanamide] | 0.69 |
| CCC[C@H](NC)C(=O)N[C@@H]1CC[C@H]2CN(S(=O)(=O)c3ccc(F)cc3)C[C@H]21 [Example 403, N^1-{(3aS,4R,6aR)-2-[(4-fluorophenyl)sulfonyl]octahydrocyclopenta[c]pyrrol-4-yl}-N^2-methyl-L-norvalinamide] | 8.65 |
| O=C(N[C@H]1CC[C@H]2CN(Cc3ccc(F)c(C(F)(F)F)c3)C[C@H]21)C(C1CCCCC1)C1CCCCC1 [Example 57, 2,2-dicyclohexyl-N-{(3aS,4S,6aR)-2-[4-fluoro-3-(trifluoromethyl)benzyl]octahydrocyclopenta[c]pyrrol-4-yl}acetamide] | 0.29 |
| Cc1cccc(CN2C[C@H]3CC[C@H](NC(=O)C(c4ccccc4)C(C)C)[C@H]3C2)c1 (stereo partly drawn) [Example 91, 3-methyl-N-[(3aR,4S,6aS)-2-(3-methylbenzyl)octahydrocyclopenta[c]pyrrol-4-yl]-2-phenylbutanamide] | 1.78 |
| O=S(=O)(c1ccc(C(F)(F)F)cc1Cl)N1C[C@H]2CC[C@H](Nc3ccc(C(F)(F)F)cn3)[C@H]2C1 [Example 295, (3aR,4S,6aS)-2-{[2-chloro-4-(trifluoromethyl)phenyl]sulfonyl}-N-[5-(trifluoromethyl)pyridin-2-yl]octahydrocyclopenta[c]pyrrol-4-amine] | 2.98 |
| O=S(=O)(c1cccc(C(F)(F)F)c1)N(C1CC1)[C@H]1CC[C@H]2CN(CCCCCC(c3ccc(F)cc3)c3ccc(F)cc3)C[C@H]21 (relative stereo) [Example 202, N-{(3aS*,4S*,6aR*)-2-[6,6-bis(4-fluorophenyl)hexyl]octahydrocyclopenta[c]pyrrol-4-yl}-N-cyclopropyl-3-(trifluoromethyl)benzenesulfonamide] | 0.83 |
| CC(C)C(C(=O)N[C@H]1CC[C@@H]2CN(Cc3cccs3)C[C@@H]21)c1ccccc1 (stereo partly drawn) [Example 102, 3-methyl-2-phenyl-N-[(3aR,4S,6aS)-2-(thien-2-ylmethyl)octahydrocyclopenta[c]pyrrol-4-yl]butanamide] | 2.77 |
| CC(C)(C)C(C(=O)N[C@@H]1CC[C@H]2CN(Cc3ccccc3)C[C@H]21)c1ccccc1 (stereo partly drawn) [Example 30, N-[(3aS,4R,6aR)-2-benzyloctahydrocyclopenta[c]pyrrol-4-yl]-3,3-dimethyl-2-phenylbutanamide] | 1.81 |
